Assay results from patent US20250145665A1, “MACROCYCLIC PEPTIDES USEFUL AS MODULATORS OF TNF ALPHA” (Bristol-Myers Squibb Company, priority 2023, published 2025).
Starred links: 1 amine or outer side, 2 acyl side, 3 side chain; linkers in the order of their positions; H or OH if unused. Positions of bridges follow the written chain, without caps; N, C: chain ends. Non-standard residues stand in square brackets, D forms with d. Residues, ends and D or L forms follow the SMILES beside them. *: point of attachment. Bip(4'-NHCO-C6H4-3-CH2COOH) = N[C@@H](Cc1ccc(-c2ccc(NC(=O)c3cccc(CC(=O)O)c3)cc2)cc1)C(=O)O; X56 = O=C(O)COc1cccc(NC(=O)c2ccc(-c3ccc(C[C@H](N[*:1])C(=O)[*:2])cc3)cc2)c1; X65 = O=C(O)Cc1cccc(NC(=O)c2ccc(-c3ccc(C[C@H](N[*:1])C(=O)[*:2])cc3)cc2)c1; X21 = N=C(NCCC[C@@H](N[*:1])C(=O)[*:2])NC[C@H](O)[C@@H](O)[C@@H](O)CO; dArg(ω-(2S)-2,3-diOHpropyl) = N=C(NCCC[C@@H](N)C(=O)O)NC[C@H](O)CO; Bip(4'-NH) = O=C([C@H](Cc1ccc(-c2ccc(N[*:3])cc2)cc1)N[*:1])[*:2]; dArg(ω-(3-HO-benzyl)) = N=C(NCCC[C@@H](N)C(=O)O)NCc1cccc(O)c1; Indazole3carbonyl(1-CH2COOH) = O=C(O)Cn1nc(C(=O)*)c2ccccc21; Bip(4'-COOH) = N[C@@H](Cc1ccc(-c2ccc(C(=O)O)cc2)cc1)C(=O)O; Indole3carbonyl(1-CH2COOH) = O=C(O)Cn1cc(C(=O)*)c2ccccc21; X68 = N=C(NCCC[C@@H](N[*:1])C(=O)[*:2])NCc1ccc(O)c(O)c1; X69 = N=C(NCCC[C@@H](N[*:1])C(=O)[*:2])NCc1cccc(N)c1; Ala(imidazol-2-yl) = N[C@@H](Cc1ncc[nH]1)C(=O)O; dArg(ω-Bn) = N=C(NCCC[C@@H](N)C(=O)O)NCc1ccccc1; Ala(morpholin-4-yl) = N[C@@H](CN1CCOCC1)C(=O)O; Benzoyl(3-OCH2COOH) = O=C(O)COc1cccc(C(=O)*)c1; Phe(3-CONH2) = NC(=O)c1cccc(C[C@H](N)C(=O)O)c1; Bip = N[C@@H](Cc1ccc(-c2ccccc2)cc1)C(=O)O; 2Pal = N[C@@H](Cc1ccccn1)C(=O)O; 2Thi = N[C@@H](Cc1cccs1)C(=O)O; Cha = N[C@@H](CC1CCCCC1)C(=O)O; Sar = CNCC(=O)O

What follows are compounds tested against TNFα (Homo sapiens, UniProt P01375) (assay: TNF-Induced HEK-Blue Assay). Details: not given.
Assay type: cell-based

Chain of TNFα (P01375 77-233 limits assumed): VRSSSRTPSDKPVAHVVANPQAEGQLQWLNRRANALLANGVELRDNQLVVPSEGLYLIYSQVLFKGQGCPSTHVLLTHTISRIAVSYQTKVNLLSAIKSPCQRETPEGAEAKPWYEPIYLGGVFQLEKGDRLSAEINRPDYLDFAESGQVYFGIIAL

Row | Compound | IC50 [nM]
1 | CC(C)C[C@@H]1NC(=O)[C@H](Cc2cnc[nH]2)NC(=O)[C@H](C(C)C)NC(=O)[C@@H]2CCCN2C(=O)[C@H](C(C)C)NC(=O)[C@@H](CCCNC(=N)NCc2ccccc2)NC(=O)[C@H](CC(=O)O)NC(=O)[C@H](Cc2ccccn2)NC(=O)CN(C)C(=O)[C@H](Cc2ccc(-c3ccc(NC(=O)c4nn(CC(=O)O)c5ccccc45)cc3)cc2)NC(=O)[C@H](Cc2ccc(-c3ccccc3)cc2)NC(=O)[C@H](CN2CCOCC2)NC(=O)CSC[C@@H](C(=O)NCC(N)=O)NC1=O [Example 628] ({CH2CO}-[Ala(morpholin-4-yl)][Bip][Bip(4'-NH)](Indazole3carbonyl(1-CH2COOH))[Sar][2Pal]D[dArg(ω-Bn)]VPVHLCG-NH2; thioether N-13) | < 50
2 | CC(C)C[C@@H]1NC(=O)[C@H](Cc2cnc[nH]2)NC(=O)[C@H](C(C)C)NC(=O)[C@@H]2CCCN2C(=O)[C@H](C(C)C)NC(=O)[C@@H](CCCNC(=N)NCc2ccccc2)NC(=O)[C@H](CC(=O)O)NC(=O)[C@H](Cc2ccccn2)NC(=O)CN(C)C(=O)[C@H](Cc2ccc(-c3ccc(NC(=O)c4cn(CC(=O)O)c5ccccc45)cc3)cc2)NC(=O)[C@H](Cc2ccc(-c3ccccc3)cc2)NC(=O)[C@H](CN2CCOCC2)NC(=O)CSC[C@@H](C(=O)NCC(N)=O)NC1=O [Example 629] ({CH2CO}-[Ala(morpholin-4-yl)][Bip][Bip(4'-NH)](Indole3carbonyl(1-CH2COOH))[Sar][2Pal]D[dArg(ω-Bn)]VPVHLCG-NH2; thioether N-13) | 50 to 200
3 | CC(C)C[C@@H]1NC(=O)[C@H](CCCNC(=N)N)NC(=O)[C@H](C(C)C)NC(=O)[C@@H]2CCCN2C(=O)[C@H](C(C)C)NC(=O)[C@@H](CCCNC(=N)NCc2ccc(O)c(O)c2)NC(=O)[C@H](CC(=O)O)NC(=O)[C@@H]2CCCN2C(=O)CN(C)C(=O)[C@H](Cc2ccc(-c3ccc(NC(=O)c4nn(CC(=O)O)c5ccccc45)cc3)cc2)NC(=O)[C@H](Cc2ccc(-c3ccccc3)cc2)NC(=O)[C@H](CN2CCOCC2)NC(=O)CSC[C@@H](C(=O)NCC(N)=O)NC1=O [Example 635] ({CH2CO}-[Ala(morpholin-4-yl)][Bip][Bip(4'-NH)](Indazole3carbonyl(1-CH2COOH))[Sar]PD[X68]VPVRLCG-NH2; thioether N-13) | < 50
4 | CC(C)C[C@@H]1NC(=O)[C@H](CCCNC(=N)N)NC(=O)[C@H](C(C)C)NC(=O)[C@@H]2CCCN2C(=O)[C@H](C(C)C)NC(=O)[C@@H](CCCNC(=N)NCc2cccc(N)c2)NC(=O)[C@H](CC(=O)O)NC(=O)[C@@H]2CCCN2C(=O)CN(C)C(=O)[C@H](Cc2ccc(-c3ccc(NC(=O)c4nn(CC(=O)O)c5ccccc45)cc3)cc2)NC(=O)[C@H](Cc2ccc(-c3ccccc3)cc2)NC(=O)[C@H](CN2CCOCC2)NC(=O)CSC[C@@H](C(=O)NCC(N)=O)NC1=O [Example 636] ({CH2CO}-[Ala(morpholin-4-yl)][Bip][Bip(4'-NH)](Indazole3carbonyl(1-CH2COOH))[Sar]PD[X69]VPVRLCG-NH2; thioether N-13) | < 50
5 | CC[C@H](C)[C@@H]1NC(=O)[C@@H](CCCNC(=N)NCc2cccc(O)c2)NC(=O)[C@H](CC(=O)O)NC(=O)[C@@H]2CCCN2C(=O)CN(C)C(=O)[C@H](Cc2ccc(-c3ccc(NC(=O)c4nn(CC(=O)O)c5ccccc45)cc3)cc2)NC(=O)[C@H](Cc2ccc(-c3ccccc3)cc2)NC(=O)[C@H](CN2CCOCC2)NC(=O)CSC[C@@H](C(=O)NCC(N)=O)NC(=O)[C@H](CC(C)C)NC(=O)[C@H](Cc2cnc[nH]2)NC(=O)[C@H](C(C)C)NC(=O)[C@@H]2CCCN2C1=O [Example 637] ({CH2CO}-[Ala(morpholin-4-yl)][Bip][Bip(4'-NH)](Indazole3carbonyl(1-CH2COOH))[Sar]PD[dArg(ω-(3-HO-benzyl))]IPVHLCG-NH2; thioether N-13) | < 50
6 | CC(C)C[C@@H]1NC(=O)[C@H](Cc2cccs2)NC(=O)[C@H](C(C)C)NC(=O)[C@@H]2CCCN2C(=O)[C@H](C(C)C)NC(=O)[C@@H](CCCNC(=N)NCc2ccccc2)NC(=O)[C@H](CC(=O)O)NC(=O)[C@H](Cc2ccccn2)NC(=O)CN(C)C(=O)[C@H](Cc2ccc(-c3ccc(NC(=O)c4nn(CC(=O)O)c5ccccc45)cc3)cc2)NC(=O)[C@H](Cc2ccc(-c3ccccc3)cc2)NC(=O)[C@H](CN2CCOCC2)NC(=O)CSC[C@@H](C(=O)NCC(N)=O)NC1=O [Example 638] ({CH2CO}-[Ala(morpholin-4-yl)][Bip][Bip(4'-NH)](Indazole3carbonyl(1-CH2COOH))[Sar][2Pal]D[dArg(ω-Bn)]VPV[2Thi]LCG-NH2; thioether N-13) | < 50
7 | CC(C)C[C@@H]1NC(=O)[C@H](Cc2cccs2)NC(=O)[C@H](C(C)C)NC(=O)[C@@H]2CCCN2C(=O)[C@H](C(C)C)NC(=O)[C@@H](CCCNC(=N)NC[C@H](O)CO)NC(=O)[C@H](CC(=O)O)NC(=O)[C@H](Cc2ccccn2)NC(=O)CN(C)C(=O)[C@H](Cc2ccc(-c3ccc(NC(=O)c4nn(CC(=O)O)c5ccccc45)cc3)cc2)NC(=O)[C@H](Cc2ccc(-c3ccccc3)cc2)NC(=O)[C@H](CN2CCOCC2)NC(=O)CSC[C@@H](C(=O)NCC(N)=O)NC1=O [Example 639] ({CH2CO}-[Ala(morpholin-4-yl)][Bip][Bip(4'-NH)](Indazole3carbonyl(1-CH2COOH))[Sar][2Pal]D[dArg(ω-(2S)-2,3-diOHpropyl)]VPV[2Thi]LCG-NH2; thioether N-13) | < 50
8 | CC(C)C[C@@H]1NC(=O)[C@H](Cc2cccs2)NC(=O)[C@H](C(C)C)NC(=O)[C@@H]2CCCN2C(=O)[C@H](C(C)C)NC(=O)[C@@H](CCCNC(=N)NC[C@H](O)[C@@H](O)[C@@H](O)CO)NC(=O)[C@H](CC(=O)O)NC(=O)[C@H](Cc2ccccn2)NC(=O)CN(C)C(=O)[C@H](Cc2ccc(-c3ccc(NC(=O)c4nn(CC(=O)O)c5ccccc45)cc3)cc2)NC(=O)[C@H](Cc2ccc(-c3ccccc3)cc2)NC(=O)[C@H](CN2CCOCC2)NC(=O)CSC[C@@H](C(=O)NCC(N)=O)NC1=O [Example 640] ({CH2CO}-[Ala(morpholin-4-yl)][Bip][Bip(4'-NH)](Indazole3carbonyl(1-CH2COOH))[Sar][2Pal]D[X21]VPV[2Thi]LCG-NH2; thioether N-13) | 50 to 200

Same assay, conditions: HEK-Blue-CD40L cells, NF-kB-driven secreted alkaline phosphatase reporter; TNFα 0.5 ng/ml; 18 h; read-out: TNF induced HEK-Blue assay IC50 value

Row | Compound | IC50 [nM]
9 | CC(C)C[C@@H]1NC(=O)[C@H](CCCNC(=N)N)NC(=O)[C@H](C(C)C)NC(=O)[C@@H]2CCCN2C(=O)[C@H](C(C)C)NC(=O)[C@@H](CCCNC(=N)NC[C@H](O)[C@@H](O)[C@@H](O)CO)NC(=O)[C@H](CC(=O)O)NC(=O)[C@@H]2CCCN2C(=O)CN(C)C(=O)[C@H](Cc2ccc(-c3ccc(NC(=O)c4cccc(CC(=O)O)c4)cc3)cc2)NC(=O)[C@H](Cc2ccc(-c3ccccc3)cc2)NC(=O)[C@H](CN2CCOCC2)NC(=O)CSC[C@@H](C(=O)NCC(N)=O)NC1=O [Example 627] ({CH2CO}-[Ala(morpholin-4-yl)][Bip][Bip(4'-NHCO-C6H4-3-CH2COOH)][Sar]PD[X21]VPVRLCG-NH2; thioether N-13) | 50 to 200
10 | CC[C@H](C)[C@@H]1NC(=O)[C@@H](CCCNC(=N)N)NC(=O)[C@H](CC(=O)O)NC(=O)[C@H](Cc2cnc[nH]2)NC(=O)CN(C)C(=O)[C@H](Cc2ccc(-c3ccc(C(=O)Nc4cccc(CC(=O)O)c4)cc3)cc2)NC(=O)[C@H](Cc2ccc(-c3ccc(C(=O)O)cc3)cc2)NC(=O)[C@H](CC2CCCCC2)NC(=O)CSC[C@@H](C(=O)NCC(N)=O)NC(=O)[C@H](CC(C)C)NC(=O)[C@H](Cc2cnc[nH]2)NC(=O)[C@H](C(C)C)NC(=O)[C@@H]2CCCN2C1=O [Example 630] ({CH2CO}-[Cha][Bip(4'-COOH)][X65][Sar]HD[dR]IPVHLCG-NH2; thioether N-13) | 50 to 200
11 | CC[C@H](C)[C@@H]1NC(=O)[C@@H](CCCNC(=N)N)NC(=O)[C@H](CC(=O)O)NC(=O)[C@H](Cc2cnc[nH]2)NC(=O)CN(C)C(=O)[C@H](Cc2ccc(-c3ccc(C(=O)Nc4cccc(OCC(=O)O)c4)cc3)cc2)NC(=O)[C@H](Cc2ccc(-c3ccccc3)cc2)NC(=O)[C@H](Cc2cccc(C(N)=O)c2)NC(=O)CSC[C@@H](C(=O)NCC(N)=O)NC(=O)[C@H](CC(C)C)NC(=O)[C@H](Cc2cnc[nH]2)NC(=O)[C@H](C(C)C)NC(=O)[C@@H]2CCCN2C1=O [Example 631] ({CH2CO}-[Phe(3-CONH2)][Bip][X56][Sar]HD[dR]IPVHLCG-NH2; thioether N-13) | 50 to 200
12 | CC[C@H](C)[C@@H]1NC(=O)[C@@H](CCCNC(=N)N)NC(=O)[C@H](CC(=O)O)NC(=O)[C@H](Cc2cnc[nH]2)NC(=O)CN(C)C(=O)[C@H](Cc2ccc(-c3ccc(C(=O)Nc4cccc(OCC(=O)O)c4)cc3)cc2)NC(=O)[C@H](Cc2ccc(-c3ccc(C(=O)O)cc3)cc2)NC(=O)[C@H](Cc2cccc(C(N)=O)c2)NC(=O)CSC[C@@H](C(=O)NCC(N)=O)NC(=O)[C@H](CC(C)C)NC(=O)[C@H](Cc2cnc[nH]2)NC(=O)[C@H](C(C)C)NC(=O)[C@@H]2CCCN2C1=O [Example 632] ({CH2CO}-[Phe(3-CONH2)][Bip(4'-COOH)][X56][Sar]HD[dR]IPVHLCG-NH2; thioether N-13) | 50 to 200
13 | CC[C@H](C)[C@@H]1NC(=O)[C@@H](CCCNC(=N)N)NC(=O)[C@H](CC(=O)O)NC(=O)[C@H](Cc2cnc[nH]2)NC(=O)CN(C)C(=O)[C@H](Cc2ccc(-c3ccc(C(=O)Nc4cccc(CC(=O)O)c4)cc3)cc2)NC(=O)[C@H](Cc2ccc(-c3ccc(C(=O)O)cc3)cc2)NC(=O)[C@H](Cc2cccc(C(N)=O)c2)NC(=O)CSC[C@@H](C(=O)NCC(N)=O)NC(=O)[C@H](CC(C)C)NC(=O)[C@H](Cc2cnc[nH]2)NC(=O)[C@H](C(C)C)NC(=O)[C@@H]2CCCN2C1=O [Example 634] ({CH2CO}-[Phe(3-CONH2)][Bip(4'-COOH)][X65][Sar]HD[dR]IPVHLCG-NH2; thioether N-13) | 50 to 200
14 | CC(C)C[C@@H]1NC(=O)[C@H](Cc2ncc[nH]2)NC(=O)[C@H](C(C)C)NC(=O)[C@@H]2CCCN2C(=O)[C@H](C(C)C)NC(=O)[C@@H](CCCNC(=N)NCc2ccccc2)NC(=O)[C@H](CC(=O)O)NC(=O)[C@H](Cc2ccccn2)NC(=O)CN(C)C(=O)[C@H](Cc2ccc(-c3ccc(NC(=O)c4cccc(OCC(=O)O)c4)cc3)cc2)NC(=O)[C@H](Cc2ccc(-c3ccccc3)cc2)NC(=O)[C@H](CN2CCOCC2)NC(=O)CSC[C@@H](C(=O)NCC(N)=O)NC1=O [Example 641] ({CH2CO}-[Ala(morpholin-4-yl)][Bip][Bip(4'-NH)](Benzoyl(3-OCH2COOH))[Sar][2Pal]D[dArg(ω-Bn)]VPV[Ala(imidazol-2-yl)]LCG-NH2; thioether N-13) | 50 to 200
